pIC50: −log10 of the molar value.

In this experiment the target is T1, human TLR9 (Homo sapiens, UniProt Q9NR96).
T1 sequence (Q9NR96 26-1032): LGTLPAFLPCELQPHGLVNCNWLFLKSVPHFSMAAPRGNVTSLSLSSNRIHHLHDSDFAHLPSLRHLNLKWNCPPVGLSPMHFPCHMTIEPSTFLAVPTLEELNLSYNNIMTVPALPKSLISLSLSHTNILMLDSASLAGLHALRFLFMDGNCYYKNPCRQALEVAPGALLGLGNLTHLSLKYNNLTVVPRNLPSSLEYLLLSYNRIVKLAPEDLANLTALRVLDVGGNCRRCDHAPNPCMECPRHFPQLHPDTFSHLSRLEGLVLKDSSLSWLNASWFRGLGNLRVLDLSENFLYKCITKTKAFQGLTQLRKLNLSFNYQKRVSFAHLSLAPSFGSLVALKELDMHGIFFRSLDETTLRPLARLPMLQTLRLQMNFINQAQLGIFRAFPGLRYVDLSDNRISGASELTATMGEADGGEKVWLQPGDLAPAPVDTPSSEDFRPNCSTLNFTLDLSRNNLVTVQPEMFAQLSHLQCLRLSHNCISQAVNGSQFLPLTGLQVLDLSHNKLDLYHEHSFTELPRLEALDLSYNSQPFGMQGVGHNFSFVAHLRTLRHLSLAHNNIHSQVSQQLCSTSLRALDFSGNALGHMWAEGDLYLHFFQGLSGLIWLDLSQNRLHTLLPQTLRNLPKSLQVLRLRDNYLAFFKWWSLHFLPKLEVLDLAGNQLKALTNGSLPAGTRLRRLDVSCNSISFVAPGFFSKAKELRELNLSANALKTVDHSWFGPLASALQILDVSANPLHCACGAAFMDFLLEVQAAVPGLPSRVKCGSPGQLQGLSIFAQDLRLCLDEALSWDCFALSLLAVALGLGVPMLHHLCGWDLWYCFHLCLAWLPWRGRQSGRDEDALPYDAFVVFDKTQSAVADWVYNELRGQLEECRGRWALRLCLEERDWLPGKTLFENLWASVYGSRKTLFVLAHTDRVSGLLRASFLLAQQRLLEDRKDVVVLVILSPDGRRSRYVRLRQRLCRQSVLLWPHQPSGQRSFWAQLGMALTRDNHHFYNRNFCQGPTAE
The experiment is described as follows: HEK293-Blue-hTLR-9 cells assay. It is filed as cell-based. Conditions: HEK293-Blue-hTLR9 cells, ODN2006 stimulation, 20 hrs, SEAP reporter; read-out: HEK/hTLR9 IC50. The text has this: HEK293-Blue-hTLR-9 Cells Assay:
A stable HEK293-Blue-hTLR-9 cell line was purchased from InvivoGen (Cat. #: hkb-htlr9, San Diego. California USA). These cells were originally designed for studying the stimulation of human TLR9 by monitoring the activation of NF-κB. A SEAP (secreted embryonic alkaline phosphatase) reporter gene was placed under the control of the IFN-β minimal promoter fused to five NF-κB and AP-1-binding sites. The SEAP was induced by activating NF-κB and AP-1 via stimulating HEK-Blue hTLR9 cells with TLR9 ligands. Therefore the reporter expression was declined by TLR9 antagonist under the stimulation of a ligand, such as ODN2006 (Cat. #: tlrl-2006-1, Invivogen, San Diego, California USA), for incubation of 20 hrs. The cell culture supernatant SEAP reporter activity was determined using QUANTI-Blue™ kit (Cat. #: rep-qb1, Invivogen, San Diego, California, USA) at a wavelength of 640 nm, a detection medium that turns purple or blue in the presence of alkaline phosphatase.
HEK293-Blue-hTLR9 cells were incubated at a density of 250.000-450,000 cells/mL in a volume of 170 μL in a 96-well plate in Dulbecco's Modified Eagle's medium (DMEM) containing 4.5 g/L glucose, 50 U/mL penicillin, […], […], 2 mM L-glutamine, 10% (v/v) heat-inactivated fetal bovine serum with addition of 20 μL test compound 1n a serial dilution in the presence of final DMSO at 1% and 10 μL of 20 uM ODN2006 in above DMEM, perform incubation under 37° C. in a CO2 incubator for 20 hrs. Then 20 μL of the supernatant from each well was incubated with 180 μL Quanti-blue substrate solution at 37° C. for 2 h and the absorbance was read at 620˜655 nm using a spectrophotometer. The signaling pathway that TLR9 activation leads to downstream NF-κB activation has been widely accepted, and therefore similar reporter assay was modified for evaluating TLR9 antagonist.
With `C[C@@H]1CN(c2ccc(C#N)c3ncccc23)C[C@@H]2c3ccc(N4CCN[C@H](CO)C4)cc3CN12` [Example 12, 5-[(4R,10bS)-8-[(3S)-3-(hydroxymethyl)piperazin-1-yl]-4-methyl-3,4,6,10b-tetrahydro-1H-pyrazino[2,1-a]isoindol-2-yl]quinoline-8-carbonitrile], the pIC50 was 7.15. As for `C[C@@H]1CN(c2ccc(C#N)c3ncccc23)C[C@@H]2c3ccc(N4C[C@@H](N)[C@](C)(O)C4)cc3CN12` [Example 45, 5-[(4R,10bS)-4-methyl-8-[trans-(3R,4R)-4-amino-3-hydroxy-3-methyl-pyrrolidin-1-yl]-3,4,6,10b-tetrahydro-1H-pyrazino[2,1-a]isoindol-2-yl]quinoline-8-carbonitrile], the pIC50 was 7.11. As for `CO[C@H]1CN(c2ccc3c(c2)CN2[C@H](C)CN(c4ccc(C#N)n5nccc45)C[C@H]32)C[C@@H]1N` [Example 95, 4-[(4R,10bS)-8-[(3S,4S)-3-amino-4-methoxy-pyrrolidin-1-yl]-4-methyl-3,4,6,10b-tetrahydro-1H-pyrazino[2,1-a]isoindol-2-yl]pyrazolo[1,5-a]pyridine-7-carbonitrile], the pIC50 was 6.67. Turning to `[2H]c1ccc2c(N3C[C@@H](C)N4Cc5cc(N6CC7CNCC(C6)O7)ccc5[C@H]4C3)ccc(C#N)c2n1` [Example 93, 5-[(4R,10bS)-4-methyl-8-(9-oxa-3,7-diazabicyclo[3.3.1]nonan-3-yl)-3,4,6,10b-tetrahydro-1H-pyrazino[2,1-a]isoindol-2-yl]-2-deuterio-quinoline-8-carbonitrile], the pIC50 was 7.16. As for `CO[C@@H]1CN(c2ccc3c(c2)CN2[C@H](C)CN(c4ccc(C#N)n5ncc(F)c45)C[C@H]32)C[C@H]1N` [Example 113, 4-[(4R,10bS)-8-[(3R,4R)-3-amino-4-methoxy-pyrrolidin-1-yl]-4-methyl-3,4,6,10b-tetrahydro-1H-pyrazino[2,1-a]isoindol-2-yl]-3-fluoro-pyrazolo[1,5-a]pyridine-7-carbonitrile], the pIC50 is 6.87.

Regarding `C[C@@H]1CN(c2ccc(C#N)c3ncccc23)C[C@@H]2c3ccc(N4CCC(N)(CO)C4)cc3CN12` (stereo partly drawn) [Example 19, 5-[(4R,10bS)-8-[3-amino-3-(hydroxymethyl)pyrrolidin-1-yl]-4-methyl-3,4,6,10b-tetrahydro-1H-pyrazino[2,1-a]isoindol-2-yl]quinoline-8-carbonitrile], the pIC50 was 7.19. As for `C[C@@H]1CN(c2ccc(C#N)c3ncccc23)C[C@@H]2c3ccc(N[C@H]4CNC[C@H]4F)cc3CN12` [Example 30, 5-[(4R,10bS)-8-[[(3S,4R)-4-fluoropyrrolidin-3-yl]amino]-4-methyl-3,4,6,10b-tetrahydro-1H-pyrazino[2,1-a]isoindol-2-yl]quinoline-8-carbonitrile], the pIC50 is 7.02.

Turning to `C[C@@H]1CN(c2ccc(C#N)c3ncccc23)C[C@@H]2c3ccc(N4CC(N)C5(COC5)C4)cc3CN12` (stereo partly drawn) [Example 18, 5-[(4R,10bS)-8-(5-amino-2-oxa-7-azaspiro[3.4]octan-7-yl)-4-methyl-3,4,6,10b-tetrahydro-1H-pyrazino[2,1-a]isoindol-2-yl]quinoline-8-carbonitrile], the pIC50 is 6.94.

Turning to `[2H]c1ccc2c(N3C[C@@H](C)N4Cc5cc(N6CC(C)(N)C6)ccc5[C@H]4C3)ccc(C#N)c2n1` [Example 92, 5-[(4R,10bS)-8-(3-amino-3-methyl-azetidin-1-yl)-4-methyl-3,4,6,10b-tetrahydro-1H-pyrazino[2,1-a]isoindol-2-yl]-2-deuterio-quinoline-8-carbonitrile], the pIC50 was 6.83.

As to `C[C@@H]1CN(c2ccc(C#N)c3ncccc23)C[C@@H]2c3ccc(N4CCNCC(O)C4)cc3CN12` (stereo partly drawn) [Example 15, 5-[(4R,10bS)-8-(6-hydroxy-1,4-diazepan-1-yl)-4-methyl-3,4,6,10b-tetrahydro-1H-pyrazino[2,1-a]isoindol-2-yl]quinoline-8-carbonitrile], the pIC50 is 7.08.

Values taken from patent US12157746B2, “Tetrahydro-1H-pyrazino[2,1-a]isoindolylquinoline compounds for the treatment of autoimmune disease” (F. HOFFMANN-LA ROCHE AG, priority 2018, dated 2024).
